Experimental data from PubChem BioAssay (NCI).
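1) Cells in 96-well plates. 2) Compound, 48 h, 5 concentrations. 3) Linear interpolation between surrounding doses. 4) Unreached endpoint = highest concentration. At the TGI there is no net growth.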

Legend:
Experiment in all cases: growth of human tumour cells (NCI), 48 h
SF-539 CNS = test system: SF-539 CNS
PC-3 prostate = test system: PC-3 prostate
MALME-3M melanoma = test system: MALME-3M melanoma
KM12 colon = test system: KM12 colon
SN12C renal = test system: SN12C renal
OVCAR-5 ovarian = test system: OVCAR-5 ovarian
RPMI-8226 leukemia = test system: RPMI-8226 leukemia
NCI-H522 lung = test system: NCI-H522 lung
NCI-H226 lung = test system: NCI-H226 lung
DMS 273 small cell lung = test system: DMS 273 small cell lung
HL-60(TB) leukemia = test system: HL-60(TB) leukemia
KM20L2 colon = test system: KM20L2 colon
CCRF-CEM leukemia = test system: CCRF-CEM leukemia
DU-145 prostate = test system: DU-145 prostate
HOP-62 NSCLC = test system: HOP-62 NSCLC
NCI-H23 lung = test system: NCI-H23 lung
HCT-15 colon = test system: HCT-15 colon
COLO 205 colon = test system: COLO 205 colon
UACC-257 melanoma = test system: UACC-257 melanoma
M19-MEL melanoma = test system: M19-MEL melanoma
IGROV1 ovarian = test system: IGROV1 ovarian
OVCAR-8 ovarian = test system: OVCAR-8 ovarian
HOP-18 NSCLC = test system: HOP-18 NSCLC
MDA-MB-231 breast = test system: MDA-MB-231 breast
A498 renal = test system: A498 renal
TK-10 renal = test system: TK-10 renal
HCC-2998 colon = test system: HCC-2998 colon
MOLT-4 leukemia = test system: MOLT-4 leukemia
HT29 colon = test system: HT29 colon
T-47D breast = test system: T-47D breast
XF 498 CNS = test system: XF 498 CNS
MCF7 breast = test system: MCF7 breast
SK-MEL-2 melanoma = test system: SK-MEL-2 melanoma
K-562 leukemia = test system: K-562 leukemia
MDA-N = test system: MDA-N
OVCAR-4 ovarian = test system: OVCAR-4 ovarian
SNB-78 CNS = test system: SNB-78 CNS
M14 melanoma = test system: M14 melanoma
BT-549 breast = test system: BT-549 breast
NCI-H460 lung = test system: NCI-H460 lung
CAKI-1 renal = test system: CAKI-1 renal
U251 CNS = test system: U251 CNS
UO-31 renal = test system: UO-31 renal
SK-MEL-5 melanoma = test system: SK-MEL-5 melanoma
MDA-MB-435 = test system: MDA-MB-435
LXFL 529 NSCLC = test system: LXFL 529 NSCLC
786-0 renal = test system: 786-0 renal
NCI/ADR-RES ovarian = test system: NCI/ADR-RES ovarian
SF-295 CNS = test system: SF-295 CNS
SF-268 CNS = test system: SF-268 CNS
A549 NSCLC = test system: A549 NSCLC
EKVX NSCLC = test system: EKVX NSCLC
SR leukemia = test system: SR leukemia
SK-OV-3 ovarian = test system: SK-OV-3 ovarian
HOP-92 NSCLC = test system: HOP-92 NSCLC
RXF 393 renal = test system: RXF 393 renal
SK-MEL-28 melanoma = test system: SK-MEL-28 melanoma
OVCAR-3 ovarian = test system: OVCAR-3 ovarian
ACHN renal = test system: ACHN renal
SW-620 colon = test system: SW-620 colon
DMS 114 small cell lung = test system: DMS 114 small cell lung
LOX IMVI melanoma = test system: LOX IMVI melanoma
UACC-62 melanoma = test system: UACC-62 melanoma
HCT-116 colon = test system: HCT-116 colon
DLD-1 colon = test system: DLD-1 colon
SNB-19 CNS = test system: SNB-19 CNS

SMILES: C[C@]12CC[C@@H]3c4ccc(O)cc4CC[C@H]3[C@@H]1CC[C@@H]2OC(=O)CCC1CCCC1
- TGI (SF-539 CNS): 40.5 µM
- TGI (PC-3 prostate): 31.3 µM
- TGI (MALME-3M melanoma): 55.3 µM
- TGI (KM12 colon): > 56.8 µM
- TGI (SN12C renal): 31.2 µM
- TGI (OVCAR-5 ovarian): > 57.2 µM
- TGI (RPMI-8226 leukemia): 38.3 µM
- TGI (NCI-H522 lung): 32.6 µM
- TGI (NCI-H226 lung): 36.6 µM
- TGI (DMS 273 small cell lung): 27.7 µM
- TGI (HL-60(TB) leukemia): 34.8 µM
- TGI (KM20L2 colon): 33.1 µM
- TGI (CCRF-CEM leukemia): 38.4 µM
- TGI (DU-145 prostate): 26.9 µM
- TGI (HOP-62 NSCLC): 33.9 µM
- TGI (NCI-H23 lung): 34.6 µM
- TGI (HCT-15 colon): 33.8 µM
- TGI (COLO 205 colon): 33.9 µM
- TGI (UACC-257 melanoma): > 57.7 µM
- TGI (M19-MEL melanoma): 67.9 µM
- TGI (IGROV1 ovarian): 33.4 µM
- TGI (OVCAR-8 ovarian): 31.7 µM
- TGI (HOP-18 NSCLC): 59.6 µM
- TGI (MDA-MB-231 breast): 32.2 µM
- TGI (A498 renal): 38.8 µM
- TGI (TK-10 renal): 48.4 µM
- TGI (HCC-2998 colon): 37.8 µM
- TGI (MOLT-4 leukemia): 35.2 µM
- TGI (HT29 colon): 32 µM
- TGI (T-47D breast): 28.4 µM
- TGI (XF 498 CNS): 40.9 µM
- TGI (MCF7 breast): 31 µM
- TGI (SK-MEL-2 melanoma): > 56.4 µM
- TGI (K-562 leukemia): 35.2 µM
- TGI (MDA-N): 20.2 µM
- TGI (OVCAR-4 ovarian): 32 µM
- TGI (SNB-78 CNS): > 100 µM
- TGI (M14 melanoma): 43.4 µM
- TGI (BT-549 breast): 32.7 µM
- TGI (NCI-H460 lung): 36.3 µM
- TGI (CAKI-1 renal): 33.2 µM
- TGI (U251 CNS): 33.5 µM
- TGI (UO-31 renal): 35.3 µM
- TGI (SK-MEL-5 melanoma): 33.4 µM
- TGI (MDA-MB-435): 21.7 µM
- TGI (LXFL 529 NSCLC): 32.1 µM
- TGI (786-0 renal): 29.9 µM
- TGI (NCI/ADR-RES ovarian): 32.9 µM
- TGI (SF-295 CNS): 31.8 µM
- TGI (SF-268 CNS): 41.1 µM
- TGI (A549 NSCLC): 32.2 µM
- TGI (EKVX NSCLC): 21 µM
- TGI (SR leukemia): 39.3 µM
- TGI (SK-OV-3 ovarian): 38.3 µM
- TGI (HOP-92 NSCLC): 47.7 µM
- TGI (RXF 393 renal): 28.3 µM
- TGI (SK-MEL-28 melanoma): 34.2 µM
- TGI (OVCAR-3 ovarian): 30.1 µM
- TGI (ACHN renal): 55.5 µM
- TGI (SW-620 colon): 38.1 µM
- TGI (DMS 114 small cell lung): 85.9 µM
- TGI (LOX IMVI melanoma): 35.6 µM
- TGI (UACC-62 melanoma): 27.5 µM
- TGI (HCT-116 colon): 31.1 µM
- TGI (DLD-1 colon): 98.6 µM
- TGI (SNB-19 CNS): 31.3 µM
